How the values were obtained:
[1] = tested on: CL097 triggered TNFα release in human whole blood; experiment: Ex vivo human TNFα release inhibition (human whole blood assay); format: cell-based; conditions: Homo sapiens, CL097 2 μg/mL, 3 h 30 min at 37° C.
Text: 4.10.1. Ex Vivo Human IFNα and TNFα Release Inhibition (Human Whole Blood Assay)
The aim of the assay is to evaluate the activity of compounds of the invention on the activated TLR/IRAK-4 pathway in an ex vivo human whole blood setting. Toll-like receptors (TLRs) are pattern recognition receptors that recognize a wide variety of microbial molecules, called pathogen-associated molecular patterns (PAMPs). Human TLR7 and TLR8 recognize imidazoquinoline compounds (e.g., CL097—CAS n #1026249-18-2) and single stranded RNAs as their natural ligands. Activation of TLRs leads to the production of several cytokines (e.g., IFNα, TNFα, IL-8, IL-6) by the TLR agonist-treated cells, whereas IRAK4 leads to the production of IFNα. Cytokine release is used as readout in this assay and represents a measure for the level of inhibition of the TLR/IRAK-4 pathway by the tested compound. It should be noted that in the context of the complete organism, other sources for these cytokines exist that are not dependent on the TLR/IRAK-4 pathway, such as e.g., macrophages (upon activation of the Fcγ receptor (Yan et al., 2012)) or T cells (upon activation of the T cell receptor (Brehm et al., 2005)).
4.10.1.1. Experimental Design
Blood was collected from healthy volunteers into lithium heparin tubes by venipuncture, then gently inverted several times to prevent clotting and incubated for at least 15 min at 37° C. on a rocking mixer shaker. Then, 100 μL of blood was dispensed into polypropylene 96-well microplate and pre-incubated in duplicate with 0.3% DMSO or test compound at different concentrations (from 30 to 0.01 μM, 3-fold dilutions to get 0.3% DMSO at the final) for 15 min at 37° C. After this pre-incubation, blood was triggered with CL097 (2 μg/mL from 1 mg/mL solution in water; InvivoGen, tlrl-c97) for 3 h 30 min at 37° C. Microtubes were centrifuged at 5000×g for 10 min at 4° C. and approximately 40 μL of plasma were collected into a polystyrene 96-well plate. Plasma could be analyzed freshly, within 30 min after triggering, or frozen at −80° C. Finally, the quantification of TNFα and IFNα were performed in the plasma using AlphaLISA Kit for TNFα and IFNα according to the manufacturer's instructions and read on the Ensight (PerkinElmer).
For each blood sample, the TNFα concentrations of the samples were determined from the fit. Data were then expressed a percentage of inhibition PIN for each replicate using the formula:
With mean TNFα with CL097=mean TNFα concentration of replicate samples triggered with CL097; TNFαsample1=TNFα concentration of sample 1; mean TNFα with vehicle=mean TNFα concentration of replicate samples treated with vehicle.
Curve fitting for pIC50 determination were generated using mean PIN±sem. Graphs and pIC50 calculations were derived using Prism 5.03 software (GraphPad).

[2] = tested on: MIA induced inflammatory hypersensitivity to pain; experiment: MIA rat pain model (weight bearing); format: in vivo, Male Sprague Dawley
Text: 5.11.1. Principle of the Assay
The mono-iodoacetate (MIA) model has become a standard model established by Van der Kraan (van der Kraan et al., 1989) for modelling joint disruption in OA in rat.
Intra-articular injection of MIA in rodents reproduces OA-like lesions and functional impairment that can be analyzed and quantified. MIA is an inhibitor of […], disrupting cellular glycolysis and eventually resulting in cell death (van der Kraan et al., 1989).
The MIA pain mouse model described by Pitcher et al. (Pitcher et al. 2016) is used to evaluate the effect of a test compound against tactile allodynia by intra-articular injection of MIA causes chondrocyte cell death, leading to cartilage degeneration and subsequent subchondral bone alterations such as appearance of bone osteophytes (Janusz et al., 2001).
MIA is the one most often used, particularly to test the efficacy of pharmacologic agents to treat pain, as this model generates a reproducible, robust, and rapid pain-like phenotype that can be graded by altering MIA dosage.
Male Sprague Dawley (250-300 g) were housed at 22±1° C. and in light-controlled environment (lights on from 7 am to 8 pm) with ad libitum access to food and water.
Inflammatory hypersensitivity to pain was induced by an injection of Monosodium Iodoacetate (MIA) 25 ul 80 mg/ml solution, into the left knee joint. Animals developed inflammatory response within 3 days post MIA.
The test compounds were administered to the treatment groups on a […] basis, starting from day 3 (D3), and continued until the end-point day on D28.
On day 3, weight-bearing measurements were taken and animals ranked and randomized to treatment groups.
On the test days, pre-dose allodynia was evaluated prior to dosing, and the effects of the administered compounds assessed 2 hours post dosing.
The test compounds were administered to the treatment groups on daily basis, according to treatment group, (some were dosed days 3-7 post MIA, and some were dosed days 24-28 post MIA) and 2 hours post dosing weight-bearing measurements were taken.
The negative control group (n=6) was daily dosed per os with the vehicle (methylcellulose, MC 0.5%), the positive control group (n=10) was daily dosed per os with Celecoxib (50 mg/kg), and the test compound group (n=10) was daily dosed per os, with 0.5% MC/Solutol for days 3-7 post MIA (Inflammatory Phase). […]
For each readout, mean and sem are calculated. A difference statistically significant between intact or treated groups and in MIA vehicle group is evaluated with Prism software using a Two-way ANOVA (for treatment groups) followed by a Dunnett's multiple comparisons post-hoc test. *: p<0.05; **: p<0.01; ***: p<0.001 versus MIA Vehicle group.

## COc1cn2nc(CCC(C)(C)O)cc2cc1NC(=O)c1cccn(C2CC2)c1=O [Compound 1, 1-cyclopropyl-N-[2-(3-hydroxy-3-methylbutyl)-6-methoxypyrazolo[1,5-a]pyridin-5-yl]-2-oxopyridine-3-carboxamide]
[1]
  IC50: 0.1 to 500 nM
[2]; 5 mg/kg daily per os, days 5-7
  reversal of inflammatory response on weight bearing: significantly reversed the inflammatory response
[2]; 5 mg/kg daily per os, days 26-28
  reversal of inflammatory response on weight bearing: significantly reversed the inflammatory response
[2]; 30 mg/kg daily per os, days 3-7
  reversal of inflammatory response on weight bearing: significantly reversed the inflammatory response
[2]; 30 mg/kg daily per os, days 26-28
  reversal of inflammatory response on weight bearing: significantly reversed the inflammatory response

— US20220218679A1, “NOVEL COMPOUNDS AND PHARMACEUTICAL COMPOSITIONS THEREOF FOR THE TREATMENT OF INFLAMMATORY DISORDERS” (Galapagos NV, priority 2019, published 2022)
